# Measured values as given in PubChem BioAssay AID248 (DTP/NCI, 2004).
# Toxic doses and inconclusive results are not listed.
# Tested on: L1210 leukemia ip in BDF1 mice, survival T/C
# Assay: NCI In Vivo Anticancer Drug Screen. Data for tumor model L1210 Leukemia (intraperitoneal) in B6D2F1 (BDF1) mice
# Conditions: endpoint: mean survival time, higher = longer survival
# In short: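 Tumor was transplanted into mice, which were then dosed with test compound or vehicle alone. Survival was recorded for each group, and the treated figure was expressed relative to the control figure.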
# [1] = dose: 100.0 mg/kg/injection, schedule: Q01DX009 (ip), vehicle: saline with Tween-80
# [2] = dose: 100.0 mg/kg/injection, schedule: Q04DX002 (ip), vehicle: saline with Tween-80
# [3] = dose: 200.0 mg/kg/injection, schedule: Q01DX009 (ip), vehicle: saline with Tween-80
# [4] = dose: 200.0 mg/kg/injection, schedule: Q04DX002 (ip), vehicle: saline with Tween-80
# [5] = dose: 100.0 mg/kg/injection, schedule: Q01DX001 (ip), vehicle: Klucel (hydroxypropylcellulose) (HPC)
# [6] = dose: 100.0 mg/kg/injection, schedule: Q04DX003 (ip), vehicle: Klucel (hydroxypropylcellulose) (HPC)
# [7] = dose: 200.0 mg/kg/injection, schedule: Q04DX003 (ip), vehicle: Klucel (hydroxypropylcellulose) (HPC)
# [8] = dose: 400.0 mg/kg/injection, schedule: Q04DX003 (ip), vehicle: Klucel (hydroxypropylcellulose) (HPC)
# [9] = dose: 400.0 mg/kg/injection, schedule: Q01DX009 (ip), vehicle: saline with Tween-80
# [10] = dose: 100.0 mg/kg/injection, schedule: Q01DX001 (ip), vehicle: carboxymethylcellulose (CMC)
# [11] = dose: 50.0 mg/kg/injection, schedule: Q01DX009 (ip), vehicle: saline
# [12] = dose: 75.0 mg/kg/injection, schedule: Q04DX003 (ip), vehicle: saline
# [13] = dose: 150.0 mg/kg/injection, schedule: Q04DX003 (ip), vehicle: saline
# [14] = dose: 300.0 mg/kg/injection, schedule: Q04DX003 (ip), vehicle: saline
# [15] = dose: 100.0 mg/kg/injection, schedule: Q04DX003 (ip), vehicle: saline
# [16] = dose: 100.0 mg/kg/injection, schedule: Q01DX009 (ip), vehicle: Klucel (hydroxypropylcellulose) (HPC)
# [17] = dose: 200.0 mg/kg/injection, schedule: Q01DX009 (ip), vehicle: Klucel (hydroxypropylcellulose) (HPC)
# [18] = dose: 400.0 mg/kg/injection, schedule: Q01DX009 (ip), vehicle: Klucel (hydroxypropylcellulose) (HPC)
# [19] = dose: 100.0 mg/kg/injection, schedule: Q01DX001 (ip), vehicle: saline
# [20] = dose: 200.0 mg/kg/injection, schedule: Q01DX001 (ip), vehicle: saline
# [21] = dose: 400.0 mg/kg/injection, schedule: Q01DX001 (ip), vehicle: saline
smiles,measurement,setting,value
OCCNC(=S)Nc1cccc(C(F)(F)F)c1,T/C,[1],100 % of control
same,T/C,[2],91 % of control
same,T/C,[3],97 % of control
same,T/C,[4],98 % of control
same,T/C,"dose: 400.0 mg/kg/injection, schedule: Q04DX002 (ip), vehicle: saline with Tween-80",112 % of control
Nc1nc(N)c(-c2ccc(Cl)c(Cl)c2)c(COc2ccc(CCNS(=O)(=O)c3ccc(S(=O)(=O)F)cc3)cc2)n1,T/C,"dose: 25.0 mg/kg/injection, schedule: Q01DX001 (ip), vehicle: Klucel (hydroxypropylcellulose) (HPC)",96 % of control
same,T/C,"dose: 50.0 mg/kg/injection, schedule: Q01DX001 (ip), vehicle: Klucel (hydroxypropylcellulose) (HPC)",102 % of control
same,T/C,[5],96 % of control
O=C1NC(=O)C(=Cc2ccccc2)C(=O)N1,T/C,[2],98 % of control
same,T/C,"dose: 200.0 mg/kg/injection, schedule: Q01DX Z (ip), vehicle: methylcellulose (MC)",94 % of control
same,T/C,[4],106 % of control
C[n+]1ccc(NC(=O)c2ccc(NC(=O)c3cccc(C(=O)Nc4ccc(C(=O)Nc5cc[n+](C)cc5)cc4)c3)cc2)cc1,T/C,"dose: 1.25 mg/kg/injection, schedule: Q01DX Z (ip), vehicle: carboxymethylcellulose (CMC)",108 % of control
same,T/C,"dose: 2.5 mg/kg/injection, schedule: Q01DX Z (ip), vehicle: carboxymethylcellulose (CMC)",113 % of control
same,T/C,"dose: 5.0 mg/kg/injection, schedule: Q01DX Z (ip), vehicle: carboxymethylcellulose (CMC)",108 % of control
same,T/C,"dose: 10.0 mg/kg/injection, schedule: Q01DX Z (ip), vehicle: carboxymethylcellulose (CMC)",111 % of control
same,T/C,"dose: 20.0 mg/kg/injection, schedule: Q01DX Z (ip), vehicle: carboxymethylcellulose (CMC)",161 % of control
same,T/C,"dose: 40.0 mg/kg/injection, schedule: Q01DX Z (ip), vehicle: carboxymethylcellulose (CMC)",166 % of control
same,T/C,"dose: 62.0 mg/kg/injection, schedule: Q01DX Z (oral), vehicle: carboxymethylcellulose (CMC)",97 % of control
same,T/C,"dose: 80.0 mg/kg/injection, schedule: Q01DX Z (ip), vehicle: carboxymethylcellulose (CMC)",188 % of control
same,T/C,"dose: 125.0 mg/kg/injection, schedule: Q01DX Z (oral), vehicle: carboxymethylcellulose (CMC)",98 % of control
same,T/C,"dose: 160.0 mg/kg/injection, schedule: Q01DX Z (ip), vehicle: carboxymethylcellulose (CMC)",153 % of control
same,T/C,"dose: 250.0 mg/kg/injection, schedule: Q01DX Z (oral), vehicle: carboxymethylcellulose (CMC)",112 % of control
same,T/C,"dose: 500.0 mg/kg/injection, schedule: Q01DX Z (oral), vehicle: carboxymethylcellulose (CMC)",108 % of control
Nc1ncc(C(=O)c2ccccc2)cc1Br,T/C,[6],97 % of control
same,T/C,[7],97 % of control
same,T/C,[8],97 % of control
COc1cc(N)nc(OC)n1,T/C,[1],98 % of control
same,T/C,[3],98 % of control
same,T/C,[9],97 % of control
[Se]c1ncnc2nc[nH]c12,T/C,"dose: 25.0 mg/kg/injection, schedule: Q01DX001 (ip), vehicle: carboxymethylcellulose (CMC)",103 % of control
same,T/C,"dose: 50.0 mg/kg/injection, schedule: Q01DX001 (ip), vehicle: carboxymethylcellulose (CMC)",93 % of control
same,T/C,[10],121 % of control
O=C(N/N=C\c1ccc([N+](=O)[O-])cc1)c1ccncc1,T/C,[1],94 % of control
same,T/C,[3],94 % of control
same,T/C,[9],98 % of control
Cc1cccc(NC(=O)Nc2cccc(C(F)(F)F)c2)c1,T/C,[10],97 % of control
same,T/C,"dose: 200.0 mg/kg/injection, schedule: Q01DX001 (ip), vehicle: carboxymethylcellulose (CMC)",101 % of control
same,T/C,"dose: 400.0 mg/kg/injection, schedule: Q01DX001 (ip), vehicle: carboxymethylcellulose (CMC)",97 % of control
CC(=O)OC1CCC2(C)C(CCC3C2CCC2(C)C(C(C)O)CCCC32)C1 (configuration not stated),T/C,[5],88 % of control
same,T/C,"dose: 200.0 mg/kg/injection, schedule: Q01DX001 (ip), vehicle: Klucel (hydroxypropylcellulose) (HPC)",98 % of control
O=C(COc1ccccc1)Oc1c(Cl)cc(Cl)cc1Cl,T/C,[6],98 % of control
same,T/C,[7],100 % of control
same,T/C,[8],100 % of control
CN(C)CCOc1ccc(Cl)cc1Cc1ccccc1,T/C,"dose: 3.12 mg/kg/injection, schedule: Q01DX009 (ip), vehicle: saline",95 % of control
same,T/C,"dose: 6.25 mg/kg/injection, schedule: Q01DX009 (ip), vehicle: saline",95 % of control
same,T/C,"dose: 12.5 mg/kg/injection, schedule: Q01DX009 (ip), vehicle: saline",118 % of control
same,T/C,"dose: 25.0 mg/kg/injection, schedule: Q01DX009 (ip), vehicle: saline",105 % of control
same,T/C,"dose: 25.0 mg/kg/injection, schedule: Q04DX003 (ip), vehicle: saline",100 % of control
same,T/C,[11],112 % of control
same,T/C,"dose: 50.0 mg/kg/injection, schedule: Q04DX003 (ip), vehicle: saline",94 % of control
CCOC(=O)C(CC1CCCCC1)(NC(C)=O)C(=O)OCC,T/C,[12],96 % of control
same,T/C,[13],104 % of control
same,T/C,[14],100 % of control
CCN(CC)CCOc1cccc(Oc2ccccc2)c1,T/C,[11],96 % of control
same,T/C,"dose: 100.0 mg/kg/injection, schedule: Q01DX009 (ip), vehicle: saline",117 % of control
same,T/C,[15],98 % of control
O=P(O)(O)O,T/C,[12],93 % of control
same,T/C,[13],98 % of control
same,T/C,[14],103 % of control
CCOc1ccc(/C=N/NS(=O)(=O)c2ccc(C)cc2)cc1,T/C,[16],104 % of control
same,T/C,[6],91 % of control
same,T/C,[17],100 % of control
same,T/C,[7],92 % of control
same,T/C,[18],94 % of control
same,T/C,[8],92 % of control
O=S(O)c1ccc2cc(O)c(S(=O)O)cc2c1,T/C,[19],95 % of control
same,T/C,[1],95 % of control
same,T/C,[20],97 % of control
same,T/C,[3],95 % of control
same,T/C,[21],97 % of control
same,T/C,[9],92 % of control
C=C(C)COP(=O)(OCC(=C)C)OCC(=C)C,T/C,[16],97 % of control
same,T/C,[6],97 % of control
same,T/C,[17],100 % of control
same,T/C,[7],100 % of control
same,T/C,[18],103 % of control
same,T/C,[8],92 % of control
O=C1NC(=O)C(c2ccccc2)(C2CCCC2)N1 (configuration not stated),T/C,"dose: 50.0 mg/kg/injection, schedule: Q01DX009 (ip), vehicle: Klucel (hydroxypropylcellulose) (HPC)",93 % of control
same,T/C,[16],98 % of control
same,T/C,[17],96 % of control
CCCCCCCCS(=O)(O)=S.[Fe],T/C,"dose: 75.0 mg/kg/injection, schedule: Q01DX001 (ip), vehicle: saline",93 % of control
same,T/C,"dose: 150.0 mg/kg/injection, schedule: Q01DX001 (ip), vehicle: saline",91 % of control
same,T/C,"dose: 300.0 mg/kg/injection, schedule: Q01DX001 (ip), vehicle: saline",91 % of control
O=C(O)c1ccc(N=Nc2ncc[nH]2)cc1,T/C,"dose: 6.25 mg/kg/injection, schedule: Q01DX009 (ip), vehicle: saline with Tween-80",92 % of control
same,T/C,"dose: 12.5 mg/kg/injection, schedule: Q01DX009 (ip), vehicle: saline with Tween-80",96 % of control
same,T/C,"dose: 25.0 mg/kg/injection, schedule: Q01DX009 (ip), vehicle: saline with Tween-80",96 % of control
same,T/C,"dose: 50.0 mg/kg/injection, schedule: Q01DX009 (ip), vehicle: saline with Tween-80",87 % of control
CN1CCc2ccc(O)cc2C1,T/C,[15],95 % of control
same,T/C,"dose: 200.0 mg/kg/injection, schedule: Q04DX003 (ip), vehicle: saline",95 % of control
O=C(O)c1ccccc1Cl,T/C,[6],103 % of control
same,T/C,[7],108 % of control
same,T/C,[8],102 % of control
COC(=O)C1=C(C(=O)OC)C2C=CC1C2,T/C,[19],102 % of control
same,T/C,[16],111 % of control
same,T/C,[20],94 % of control
same,T/C,[17],91 % of control
same,T/C,[21],91 % of control
same,T/C,[18],97 % of control
OCCNCCc1ccccc1,T/C,"dose: 75.0 mg/kg/injection, schedule: Q01DX009 (ip), vehicle: carboxymethylcellulose (CMC)",104 % of control
same,T/C,"dose: 150.0 mg/kg/injection, schedule: Q01DX009 (ip), vehicle: carboxymethylcellulose (CMC)",107 % of control
CC1CC(C)(C)OCO1 (configuration not stated),T/C,[6],100 % of control
same,T/C,[7],93 % of control
same,T/C,[8],86 % of control
O=S(=O)(/N=C(Cl)/C(Cl)=N/S(=O)(=O)c1ccccc1)c1ccccc1,T/C,[6],95 % of control
same,T/C,[7],100 % of control
same,T/C,[8],95 % of control
O=C(/C=C/C(=O)Oc1ccccc1)Oc1ccccc1,T/C,[16],88 % of control
same,T/C,[6],107 % of control
same,T/C,[17],91 % of control
same,T/C,[7],107 % of control
same,T/C,[18],98 % of control
same,T/C,[8],98 % of control
